Experimental data published in ChEMBL document CHEMBL1155981, “Molecular modeling studies to predict the possible binding modes of endomorphin analogs in mu opioid receptor” (Bioorg Med Chem Lett, 2009).
pKi: −log10 of the molar value. Peptide text beside a SMILES is read from it. * marks the point of attachment. NHBn = c1ccc(CN*)cc1

What follows are compounds tested against Mu-type opioid receptor (Homo sapiens, UniProt P35372) (assay: Binding affinity to human mu opioid receptor).
Sequence of Mu-type opioid receptor (P35372 whole entry): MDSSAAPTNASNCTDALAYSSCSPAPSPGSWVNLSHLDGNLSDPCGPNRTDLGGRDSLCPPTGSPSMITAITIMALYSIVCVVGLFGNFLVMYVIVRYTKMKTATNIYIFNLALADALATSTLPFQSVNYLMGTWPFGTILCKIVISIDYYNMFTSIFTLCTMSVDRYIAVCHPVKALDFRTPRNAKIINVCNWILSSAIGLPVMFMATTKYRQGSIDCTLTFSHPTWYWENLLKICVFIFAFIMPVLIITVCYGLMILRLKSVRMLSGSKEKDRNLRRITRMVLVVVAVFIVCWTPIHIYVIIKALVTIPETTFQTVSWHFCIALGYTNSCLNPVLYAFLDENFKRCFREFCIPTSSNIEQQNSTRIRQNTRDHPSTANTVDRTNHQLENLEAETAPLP
In the case of `N[C@@H](Cc1ccc(O)cc1)C(=O)N1CCC[C@H]1C(=O)N[C@@H](Cc1c[nH]c2ccccc12)C(=O)NCC(=O)NCc1ccccc1` (H-YPWG-NHBn), the pKi was 7.25.
With `C[C@@H](NC(=O)[C@H](Cc1c[nH]c2ccccc12)NC(=O)[C@@H]1CCCN1C(=O)[C@@H](N)Cc1ccc(O)cc1)C(=O)NCc1ccccc1` the pKi was 8.34.
`C[C@H](NC(=O)[C@H](Cc1ccccc1)NC(=O)[C@@H]1CCCN1C(=O)[C@@H](N)Cc1ccc(O)cc1)C(=O)NCc1ccccc1` gave a pKi of 6.91.
In the case of `CC(C)[C@@H](NC(=O)[C@H](Cc1c[nH]c2ccccc12)NC(=O)[C@@H]1CCCN1C(=O)[C@@H](N)Cc1ccc(O)cc1)C(=O)NCc1ccccc1`, the pKi was 8.63.
Compound `C[C@@H](NC(=O)[C@H](Cc1ccccc1)NC(=O)[C@@H]1CCCN1C(=O)[C@@H](N)Cc1ccc(O)cc1)C(=O)NCc1ccccc1` has a pKi of 8.06.
Compound `CC(C)[C@@H](NC(=O)[C@H](Cc1ccccc1)NC(=O)[C@@H]1CCCN1C(=O)[C@@H](N)Cc1ccc(O)cc1)C(=O)NCc1ccccc1` has a pKi of 8.30.
